For this series the following is noted: JIS Z 7260-107.

Regarding `O=C1NS(=O)(=O)c2ccccc21.[Ag]` [saccharin silver], the “silver concentrations eluted out in 1-octanol or in water (hydrophilic and oleophilic property)” value is “hydrophilic property and oleophilic property which are both superior to those of silver stearate, phthalazone silver or benzotriazole silver”.

Values taken from patent publication US11172676B2, “Antibacterial resin composition” (TOYO SEIKAN GROUP HOLDINGS, LTD., priority 2011, dated 2021).
